# Structures can show the parent of a compound that is named as a salt. Where two headings read alike, the source gives them in different places.
# How the values were obtained:
# slow wave sleep = test: EEG study of the duration of slow wave sleep in rats after i.p. injection; assay type: in vivo, Male Wistar rats; conditions: for Duration of slow wave sleep: 3 h EEG recording, mean ± SEM; for Increase of the duration of slow wave sleep: versus NaCl
# From the text: Male Wistar rats, weighing 200 g at the beginning of the experiment, coming from the Centre d'Elevage Janvier (Route des Chenes-Secs, Le Genest St-Isle, 53940 France) were used for this study.
# After eight days of adaptation to the breeding conditions at the Animalerie Centrale de la Faculte de Medecine (11, rue Humann 67084 Strasbourg), these animals were placed in individual cages (Makrolon type cages 3H, 425×266×150) in a standard (7 a.m./7 p.m.) day/night rhythm, with water and food (UAR ref. A04) continually available to them. The animals were then transferred to an experimentation facility on supports capable of receiving 24 cages.
# The surgical procedure is the following: after one month of becoming accustomed to the (10 a.m./10 p.m.) day/night cycle, the rats are weighed and then anesthetized with ketamine (Imalgene 500 Merial) at a dose of 150 mg/kg i.p. After having placed the animal in a stereotactic frame (Narishige), a rostrocaudal incision is made using a sterilized scalpel (No. 3 blade, Swann-Morton England).
# The parietal bone sutures, Lambda and Bregma, are exposed serve as stereotactic reference (point 0). After having perforated the cranial casing using a dental drill without infringing on the meninges (Minitor Narishige), two stainless steel screws 500 μm in diameter (Magister, 4 rue du Lac 25130 Villers Le Lac) are implanted at the following coordinates: Bregma AP: ±4 mm and ML: ±3 mm.
# Two copper wires are soldered with tin to the screws, on one hand, and to the female connector, on the other hand (VP Electronic, Square de la Poteme, 91302 Massy Cedex). The assembly which is realized is then covered with a polymerizing resin (Paladur, Kulzer, Germany).
# The implanted rats are then placed in their respective cages. A post-operative period greater than 48 h is complied with before any recording.
# All the EEG recordings are made during the first hours of the dark [sic; light] phase (that is, between 10 a.m. and 1 p.m.), which represents the period of awakening and intense activity of the animals.
# The rats are placed in a cage made of Plexiglas (170×170×300), and after a 30 min period of becoming accustomed to their new environment, they are recorded continuously for a duration of 3 h after i.p. injection (2 mL/kg) of 0.9% NaCl or the ligand to be studied. The EEG graph is made using an 8-track recorder (Alvar Electronic, 6 rue du Progres, 93511-Montreuil) with a running speed of 0.5 cm/s.
# The total durations of slow wave sleep for each animal are evaluated in 20 min sections for the total duration of the 3 h recording (1 cm=2 seconds).
# The statistical comparison is made using an analysis of variance test (Anova) followed by a multiple comparison test. […]
# The numbers in parentheses correspond to the percentages of slow wave sleep with respect to the total duration of sleep.
# GHB receptors = GHB receptors (Rattus norvegicus, UniProt P11275); test: Displacement of 3H-GHB binding on rat brain membranes; parameters: species or system Wistar rats
# [1] = in cats; cited from earlier work
# [2] = read-out: IC50 (concentration displacing 50% of the reversible binding of 3H-GHB), rat brain membranes, potassium phosphate buffer pH 6.0, 30 min in ice
# Sequence of GHB receptors (P11275 whole entry): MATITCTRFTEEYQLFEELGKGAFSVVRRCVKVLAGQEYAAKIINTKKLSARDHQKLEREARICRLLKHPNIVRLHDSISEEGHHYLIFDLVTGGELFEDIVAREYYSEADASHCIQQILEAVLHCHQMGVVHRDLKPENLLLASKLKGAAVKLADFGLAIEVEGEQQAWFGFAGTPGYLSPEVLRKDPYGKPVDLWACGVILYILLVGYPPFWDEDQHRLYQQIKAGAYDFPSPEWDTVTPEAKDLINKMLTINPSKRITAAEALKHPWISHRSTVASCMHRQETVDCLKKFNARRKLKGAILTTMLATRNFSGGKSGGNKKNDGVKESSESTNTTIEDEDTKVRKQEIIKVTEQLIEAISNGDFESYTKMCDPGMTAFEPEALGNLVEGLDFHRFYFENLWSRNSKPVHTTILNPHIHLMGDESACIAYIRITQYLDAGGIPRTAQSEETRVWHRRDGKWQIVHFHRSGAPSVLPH
compound,measurement,setting,value
"O=C(O)CCC(O)c1ccc(Cl)c(Cl)c1 (centres unmarked) [Compound 2, Sodium salt of 4-(3,4 dichlorophenyl)-4-hydroxybutanoic acid]",Percentage of slow wave sleep with respect to the total duration of sleep (in parentheses),slow wave sleep; 0.28 mmol/kg i.p.,23%
same,Duration of slow wave sleep,slow wave sleep; 0.28 mmol/kg i.p.,53 ± 7 min
same,Increase of the duration of slow wave sleep,slow wave sleep; 0.28 mmol/kg i.p.,42 min
"O=C([O-])CCC(O)c1cc2c3c(cccc3c1)CC2.[Na+] (centres unmarked) [Compound 24, Sodium salt of 4-(1,2-dihydroacenaphthylen-4-yl)-4-hydroxybutanoic acid]",IC50,"GHB receptors; affinity for the GHB receptor, repeated in Table 4, read-out: IC50",80 nM
same,IC50,GHB receptors; [2],80 nM
same,Percentage of slow wave sleep with respect to the total duration of sleep (in parentheses),slow wave sleep; 0.15 mmol/kg i.p.,23%
same,Duration of slow wave sleep,slow wave sleep; 0.15 mmol/kg i.p.,53 ± 7 min
same,Increase of the duration of slow wave sleep,slow wave sleep; 0.15 mmol/kg i.p.,42 min
same,Percentage of slow wave sleep with respect to the total duration of sleep (in parentheses),slow wave sleep; 0.28 mmol/kg i.p.,28%
same,Duration of slow wave sleep,slow wave sleep; 0.28 mmol/kg i.p.,61 ± 8 min
same,Increase of the duration of slow wave sleep,slow wave sleep; 0.28 mmol/kg i.p.,50 min
"O=C(O)CCC(O)c1ccc2c(c1)-c1ccccc1C2 (centres unmarked) [Compound 32, Sodium salt of 4-(9H-fluoren-3-yl)hydroxybutanoic acid]",IC50,GHB receptors; [2],300 nM
"CC1(C)Cc2cc(C(O)CCC(=O)O)ccc2NC1=O (centres unmarked) [Compound 40, Sodium salt of 4-(3,3-dimethyl-2-oxo-1,2,3,4-tetrahydroquinolin-6-yl)-4-hydroxybutanoic acid]",IC50,GHB receptors; [2],1100 nM
"O=C(O)CCCO [GHB, γ-hydroxybutyrate]",half-life,[1],approximately one
Sodium salt of 4-hydroxy-4-(phenoxathiin-2 or 3-yl) butanoic acid isomer B [Compound 29],IC50,GHB receptors; [2],900 nM
Sodium salt of 4-hydroxy-4-(phenoxathiin-2 or 3-yl)butanoic acid isomer A [Compound 28],IC50,GHB receptors; [2],100 nM
"Sodium salts of 4-hydroxy-4-(4-oxo-4,5-dihydro-3H-pyridazo(4,5-b)indol-8 and 6-yl)butanoic acids 8/6 isomer mixture [Compound 33]",IC50,GHB receptors; [2],200 nM

# Source: patent publication US20050113366A1 (priority 2000, published 2005)
